Source: PubChem BioAssay (NCI)
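1) Cells in 96-well plates. 2) Compound, 48 h, 5 concentrations. 3) Linear interpolation between surrounding doses. 4) Unreached endpoint = highest concentration. At the TGI there is no net growth.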

Key:
Assay in all cases: DTP human tumour cell line panel, 48 h
[1] = tested on: ACHN renal
[2] = tested on: EKVX NSCLC
[3] = tested on: SK-MEL-5 melanoma
[4] = tested on: PC-3 prostate
[5] = tested on: M14 melanoma
[6] = tested on: HS 578T breast
[7] = tested on: SK-OV-3 ovarian
[8] = tested on: NCI/ADR-RES ovarian
[9] = tested on: K-562 leukemia
[10] = tested on: SF-268 CNS
[11] = tested on: HCT-15 colon
[12] = tested on: NCI-H522 lung
[13] = tested on: SN12C renal
[14] = tested on: MALME-3M melanoma
[15] = tested on: UO-31 renal
[16] = tested on: HCT-116 colon
[17] = tested on: CAKI-1 renal
[18] = tested on: SK-MEL-28 melanoma
[19] = tested on: RPMI-8226 leukemia
[20] = tested on: LOX IMVI melanoma
[21] = tested on: HOP-62 NSCLC
[22] = tested on: SNB-75 CNS
[23] = tested on: DU-145 prostate
[24] = tested on: BT-549 breast
[25] = tested on: OVCAR-8 ovarian
[26] = tested on: SR leukemia
[27] = tested on: KM12 colon
[28] = tested on: MDA-MB-435
[29] = tested on: U251 CNS
[30] = tested on: MDA-N
[31] = tested on: SW-620 colon
[32] = tested on: HCC-2998 colon
[33] = tested on: RXF 393 renal
[34] = tested on: UACC-257 melanoma
[35] = tested on: SF-539 CNS
[36] = tested on: HL-60(TB) leukemia
[37] = tested on: OVCAR-3 ovarian
[38] = tested on: T-47D breast
[39] = tested on: OVCAR-5 ovarian
[40] = tested on: UACC-62 melanoma
[41] = tested on: HT29 colon
[42] = tested on: 786-0 renal
[43] = tested on: MDA-MB-231 breast
[44] = tested on: A549 NSCLC
[45] = tested on: TK-10 renal
[46] = tested on: CCRF-CEM leukemia
[47] = tested on: COLO 205 colon
[48] = tested on: SF-295 CNS
[49] = tested on: OVCAR-4 ovarian
[50] = tested on: NCI-H226 lung
[51] = tested on: SNB-19 CNS
[52] = tested on: A498 renal
[53] = tested on: HOP-92 NSCLC
[54] = tested on: IGROV1 ovarian
[55] = tested on: SK-MEL-2 melanoma
[56] = tested on: NCI-H23 lung
[57] = tested on: MOLT-4 leukemia
[58] = tested on: MCF7 breast
[59] = tested on: NCI-H460 lung

Measured: TGI

CC(C)(C)OC(=O)N/N=C(/N)Cc1ccccc1
not listed: [59]
> 100 µM: all other assays above

COC(=O)[C@@]12C(=O)C(C)C(=O)[C@]1(C)C(C)=C[C@H]1[C@]3(C=O)CC[C@H](OC(C)=O)C(C)(C)[C@H]3CC[C@@]12C (stereo not given in full)
52.3 µM: [36]
69.1 µM: [57]
63.8 µM: [46]
not listed: [13] | [54] | [58]
> 100 µM: all other assays above

N#Cc1[nH]c(=O)n(-c2cccc3ccccc23)c1N
not listed: [15] | [22] | [50] | [53]
> 10 µM: all other assays above

O=c1oc2c(ccc3ccccc32)cc1C1=CSC2=NCCN12
84.3 µM: [53]
71.1 µM: [24]
67.8 µM: [58]
38.7 µM: [32]
75.1 µM: [23]
not listed: [39] | [50] | [52]
> 100 µM: all other assays above
